In patent US10785978B2, “Control and repellency of biting flies, house flies, ticks, ants, fleas, biting midges, cockroaches, spiders and stink bugs” (priority 2012, dated 2020):

Tests used:
Type in all cases: in vivo
[1] = system: Brown Dog Ticks, Rhipicephalus sanguineus
From the text: The following protocol was employed to test compounds of this invention for toxicity (mortality) against ticks. There were 5 replicates of 5 dog ticks for each treatment. […] Filter paper strips were laid on a sheet of aluminum foil and enough of each of the test sample was applied to thoroughly saturate the paper. The paper was then rolled and placed inside a glass shell vial as to line the sides of the vial. A small paper disc, also saturated with the test sample, was then placed at the bottom of the vial. Brown Dog Ticks, Rhipicephalus sanguineus, were then introduced into the vials which were covered with aluminum foil, the inside of which was painted with some of the test sample. The ticks remained in the vials, constantly exposed to the test samples, for the duration of the test. A small hole was poked through the foil for ventilation. Each control replicate was subjected to the same procedures outlined above, except that they were not treated. The controls were placed in the same area as the test replicates for the duration of the test. Mortality observations were made at 24 hours. Ticks were classified as alive (able to move normally), moribund (those classified as moribund will show some movement, but will not be able to crawl in a coordinated manner, or will be unable to right themselves if placed on their backs), or dead (no movement after physical stimuli). All dead ticks were confirmed by probing or agitation to make sure that they are unable to move; any that show movement visible to the naked eye were recorded as moribund. At 24 hours the tick mortality was 0% for the control, 100% for γ-dodecalactone, 100% for methyl apritone and 76% for methyl dihydrojasmonate.

Brown Dog Ticks = experiment: Second repellent assay against Brown Dog Ticks; conditions: 7% in isopropyl alcohol
Description: Also, a second repellent assay was used to evaluate six test samples against Brown Dog Ticks. Five replicates of five ticks were given the opportunity to quest onto a vertical strip of untreated filter paper and then allowed to move upward toward a second vertical strip of filter paper treated with one of the six candidate repellents or DEET®. In the control situation, the second strip was treated with isopropanol. They were then observed for directional or behavioral changes caused in response to contact with the repellent. Ticks were recorded as either repelled or not repelled. Compounds were diluted in isopropyl alcohol. The percentages of ticks repelled are shown below in Table 6.

stable flies = experiment: Stable fly probing on treated warmed blood-filled membranes; conditions: for Probes at 7% test compound: 7% in isopropyl alcohol on membrane; for Probes at 7% test compound / Probes at 15% test compound: twenty minutes, percent of control probes taken as 100%; for Probes at 15% test compound: 15% in isopropyl alcohol on membrane
Description: Five replicates of 100 mixed-sex stable flies each were placed in screened cages. The cages were placed in such a way that the stable flies had access to five warmed, blood-filled membrane walls. The membranes were treated with methyl dihydrojasmonate, gamma-dodecalactone, methyl apritone, or DEET® all at 7% and at 15% in isopropyl alcohol, or isopropyl alcohol as a control. There were five replicates tested with a positional rotation of the repellent at each replicate. Fresh batches of stable flies were used for each replicate. Thus each test sample was tested on each of the five wells, which allowed any positional bias to be eliminated. The number of stable flies probing each well was recorded at two minute intervals for twenty minutes. The total number of probes on each well were tallied at the end of the twenty minute observation period and the average percentage repellency was calculated for each compound. An analysis of variance was conducted to compare the average number of probes on each treatment membrane. The number of probes for the control was taken as the 100% baseline and the percentage for the test compounds is the percent for the number of probes for the test compound compared to the number of control probes.

sand flies P. papatasi = experiment: Sand fly bite test on treated human skin with K&D module; conditions: for percent biting, Treatment level 5%: 5% compound in isopropyl alcohol on human skin; for percent biting, Treatment level 5% / percent biting, Treatment level-10%: five minute exposure, percent of control biting taken as 100%; for percent biting, Treatment level-10%: 10% compound in isopropyl alcohol on human skin; for sand flies repelled: at 5%
Description: Control against sand flies was determined by the following protocol as generally described in J. Med. Entomol. 43 (6), 1248-1252 (2006). Volunteers wearing short pants were seated. Using a skin-marking template and a washable-ink marker, skin areas represented by 3- by 4-cm floor opening of six cells of a K&D module were outlined on the outer, top and inner thigh position of each leg of the volunteers. The six treated cell rectangles each represented a random block, and each volunteer had three blocks on each of two thighs. All treatments against the sand flies P. papatasi, were pipetted onto a 4- by 5-cm rectangular area (so the area of skin covered by a treatment exceeded the template marks by 0.5 cm in every direction) of the subjects' skin with 55 ul of isopropyl alcohol/treatment containing 10% or 5% compound/ul isopropyl alcohol. Treating a slightly larger area ensured that the areas beneath each K&D module contained only treated skin. Skin treated with isopropyl alcohol alone served as control. In all tests adjacent cells of the K&D module were supplied with ten sand flies. The sand fly charged K&D module was positioned over the treated skin areas and the trap doors of the K&D module above the areas were opened. After a five minute skin exposure the trap doors were closed. The number of sand fly bites was recorded for each cell. The percent biting is the percent compared to the biting for the control which was taken as 100%.

German cockroaches = experiment: German cockroach repellency, choice of food stations in arena; conditions: 50% in acetone; at 4 hours
Description: The efficacy of compounds of this invention to control or repel German cockroaches was illustrated using the following protocol. One food pellet each was placed on a paper square (station) treated with one of the repellent materials. Materials were diluted to 50% in acetone and a straight acetone station was also used. Both stations were placed on the same side of the arena. Cockroaches were starved for 2 days and then released into the arena. They were given a choice to feed on either food pellet. A control arena with an acetone treated station and an untreated station was also used. The distribution of cockroaches within the arena was recorded at 30 minute intervals over 4 hours. Repellency at 4 hours was calculated by the number of cockroaches on the untreated station vs. the total number of cockroaches on the stations.

house flies = experiment: House fly repellency on treated filter paper food trays in cages; conditions: over 6 hours
Description: The bottom of each cage was lined with brown craft paper and divided into 4 equal quadrants. Each quadrant housed a makeshift filter paper food tray. Two of the four filter papers were treated with repellent and two treated with isopropanol. Control cages contained filter papers that were treated with 4 filter papers of isopropanol only. The number of flies resting on filter paper per quadrant was recorded every 30 minutes for a total of 6 hours. Cages were rotated to eliminate positional bias. […] Each of the test samples were diluted in isopropyl alcohol.

Black Widow spiders = experiment: Black Widow spider choice test in half-treated tube shelters; conditions: 5% in isopropanol; location after 24 hours
Description: Control against Black Widow spiders was determined using the following protocol. One test container containing two card stock tube shelters, one half treated with a test sample and the other half treated with isopropanol was prepared. A spider was introduced in the center of the tube. The spider was then given a choice to move to one end of the shelters. The following day, its location is recorded and compared to the results from a shelter containing untreated half-shelters.
On the day of the test one of the two shelters was sprayed with the test sample solution using a 2 oz pump spray bottle. Only the surfaces that the spider will most likely contact were treated. Therefore, only the inside of one of the shelter tubes, including the end disc (spiders will not be able to access the outside part of the shelter) were sprayed. The total amount of product was weighed and recorded. The treated surface was allowed to dry for a minimum of ½ hour, or until solvent could not be detected by smell. At this time the shelter tubes were assembled.
Card stock paper tube shelters were constructed from 2 half-letter sized sheets (5½″×8½″) of paper, rolled and taped together to form a short tube. One end of each was covered with a circle of card stock paper, while the other end was later taped to the open end of the other half sheet, forming one long tube. […] The solvent-treated half was labeled with a “C” on the inner and outer walls with a pencil or a pen with solvent resistant ink. Prior to forming the final tube shelter, a semi-circular hole was cut into one of the margins of each sheet such that, once the two tubes are taped together, the holes correspond to the top and at the junction of the tubes for introduction of the spiders.
Twenty-five arenas were prepared in this manner for each test sample. There were five replicates of five spiders. Twenty-five additional control arenas were also prepared. They were prepared the same way, except that areas to be sprayed were sprayed with isopropanol only.
Replicates of five spiders were selected for each test formulation and for the control. The specimens were visually examined for overall physical condition. […] The spiders were transferred directly into the holding vials using flexible forceps or with a little coaxing with an artist brush. Because of their cannibalistic tendencies, each vial contained only one spider. There they were held until the time for testing.
At the test start the spiders were placed directly in the middle, through the opening at the top of the shelter tube, and the opening covered, with only one spider per arena. […] They were left alone for 24 hours, after which time their location within the arena was recorded. Spiders present inside the shelter treated with the test repellent were considered tolerant.

[2] = system: Brown Dog Ticks, Rhipicephalus sanguineus; experiment: Brown Dog tick repellency on vertical filter paper strips
Description: Control against Brown Dog ticks was determined in the following protocol. Strips of filter paper, 1″ by 3″, were placed on a sheet of aluminum foil treated with 1 ml each of the test samples and allowed to dry. The end of each treated strip was stapled to an untreated filter paper strip of the same dimensions. The stapled strips were suspended in a vertical position above a tray, with the treated half attached to a horizontal glass rod by a metal clip. The untreated half was lowered when the strip is vertically positioned. Brown Dog Ticks, Rhipicephalus sanguineus, mixed sexes, were purchased from a supplier. Five replicates of five ticks for each treatment regimen plus five additional replicates for the control were employed. Ticks shipped to the test site were given at least one day to acclimate to “shipping stress” before they are used for testing. Those tick specimens which appeared sluggish or moribund were not used. Suitable ticks were removed from their containers and allowed to quest on the free end of the test strip. Once present on the strip they were watched as they crawled up the strip until they contacted the treated paper. If the tick, once in contact with the treated zone, either turned around, stopped without proceeding further, or dropped off, the tick is classified as repelled. If it continued to crawl onto the treated strip, even after it stopped briefly, that tick was classified as not repelled. A maximum observation time of 1 minute per replicate was allowed for ticks to respond after reaching the treated area, but during the test, if more time was needed, the maximum observation time may have been adjusted at the discretion of the study coordinator. At the end of the observation time, the number of ticks repelled was recorded. Tick behavior was recorded when applicable, such as whether increased number of affected or repelled ticks occurred in successive replicates over time. After the completion of each treatment parameter, the testing chamber was ventilated for five minutes by turning on the exhaust fan and opening the door leading into the chamber. Ticks were used only once. Average number of ticks displaying each behavior category were calculated and compared to the control replicates.

[3] = system: brown marmorated stink bugs (BMSB); experiment: Brown marmorated stink bug repellency, treated vs. untreated filter paper arena
Description: The two semi-circle filter papers were aligned together to completely cover the bottom of the test arena. Control arenas were also set up in a similar fashion except both were treated with acetone. Five replicates of 5 BMSB were then introduced into both the treated and control arenas. By releasing them in the center of the arena, the BMSB were presented with a choice of treated vs. untreated substrate (or untreated vs. untreated in the control arenas). The repellency of the BMSB was recorded at 24 hours post-treatment.

Pharaoh ants = experiment: Pharaoh ant behaviour at treated-untreated interface on poster board; conditions: 50% in acetone; 5 minutes after release
Description: Pharaoh ants were tested using the following protocol. The side of a 17″×23″ rectangular sheet of poster board was sprayed with the test sample or acetone, except for a region within a 6″ circle. The treated poster board was allowed to dry. Five worker ants were placed in the center of the 6″ untreated circle and allowed to wander outside the circle onto the treated surface. The behavior of the ants at the treated-untreated interface was recorded for 5 minutes after release. Test compounds were diluted in acetone.

CCCCCC1CC(C)=CC(O)C1 (stereo not shown) [3-Methyl-5-Pentyl-2-cyclohexenol, 3-methyl-5-pentyl-2-cyclohexenol]
morbidity at 24 hr ([1]; 10%, constant exposure 24 hours): 100% | 24 hr mortality (%) ([1]; in vivo): 12%

CCN(CC)C(=O)c1cccc(C)c1 [DEET ®, N,N-Diethyl-m-toluamide, reference compound]
Mean % repelled (Brown Dog Ticks): 96% | Probes at 7% test compound (stable flies): 45.9% | Probes at 15% test compound (stable flies): 16.2%

CCCCCC1C(O)CCC1CC(=O)OC (stereo not shown) [Methyl dihydrojasmolate]
percent biting, Treatment level 5% (sand flies P. papatasi): 0% | percent biting, Treatment level-10% (sand flies P. papatasi): 0% | sand flies repelled (sand flies P. papatasi): 100%

CCCCCC1C(=O)CCC1CC(=O)OCC=C(C)C (stereo not shown) [Prenyl dihydrojasmonate]
% Repellency 4 hr (German cockroaches): 87.5%

CCCCCCCCCC1CCCC(=O)O1 (stereo not shown) [delta Tetradecalactone]
Overall % Repellency (house flies; 5% in isopropyl alcohol): 76%

CCCCCCCCCCCC1CCC(=O)O1 (stereo not shown) [gamma Pentadecalactone]
Overall % Repellency (house flies; 7.5% in isopropyl alcohol): 87% | % Repellency (Black Widow spiders): 75.0%

CCCCCCCCCC1CCC(=O)O1 (stereo not shown) [gamma Tridecalactone, gamma-tridecalactone]
Overall % Repellency (house flies; 5% in isopropyl alcohol): 80% | Overall % Repellency (house flies; 7.5% in isopropyl alcohol): 94% | % Repellency (Black Widow spiders): 75.0% | Mean % repelled ([2]; 7.5% in isopropyl alcohol): 100% | % Repellency at 24 hours ([3]; 5% in isopropyl alcohol): 70%

CCCCCCCCC1CCC(=O)O1 (stereo not shown) [gamma-Dodecalactone, gamma-dodecalactone]
% Repellency 4 hr (German cockroaches): 96.6% | Overall % Repellency (house flies; 7.5% in isopropyl alcohol): 100% | Mean % repelled ([2]; Neat): 100% | ticks repelled ([2]; concentration not given): 100% | % Repellency at 24 hours ([3]; 10% in isopropyl alcohol): 100% | Probes at 7% test compound (stable flies): 6.2% | Probes at 15% test compound (stable flies): 3.6% | repellency compared with DEET (stable flies; at the same concentrations (7% and 15%)): repelled better than DEET® | 24 hr mortality (%) ([1]; in vivo): 100% | tick mortality at 24 hours ([1]; in vivo): 100% | % crossed without stopping (Pharaoh ants): 82% | % slowed, but crossed (Pharaoh ants): 8% | % stopped at interface (Pharaoh ants): 10%

Farnesyl cyclopentanone
% Repellency 4 hr (German cockroaches): 100%

Methyl apritol
percent biting, Treatment level 5% (sand flies P. papatasi): 12.5% | percent biting, Treatment level-10% (sand flies P. papatasi): 0% | sand flies repelled (sand flies P. papatasi): 87.5%
